Assay results from ChEMBL document CHEMBL1201862, “PubChem BioAssay data set” (2004).
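Exposure lasted 48 hours, with cells grown in 96-well plates and compounds tested at five concentrations. GI50 marks 50% less growth.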 Activity calls are given as the source filed them. Rule as the data show it: active = GI50 up to about 1.1 µM and inactive = higher.

Columns and labels:
Assay in all cases: inhibition of tumour cell growth, NCI panel, 48 h
786-0 = test system: 786-0
A498 = test system: A498
A549 = test system: A549
ACHN = test system: ACHN
BT-549 = test system: BT-549
CAKI-1 = test system: CAKI-1
CCRF-CEM = test system: CCRF-CEM
COLO 205 = test system: COLO 205
DU-145 = test system: DU-145
EKVX = test system: EKVX
HCT-116 = test system: HCT-116
HCT-15 = test system: HCT-15
HL-60 = test system: HL-60
HOP-62 = test system: HOP-62
HT-29 = test system: HT-29
Hs-578T = test system: Hs-578T
IGROV-1 = test system: IGROV-1
K562 = test system: K562
KM12 = test system: KM12
LOX IMVI = test system: LOX IMVI
M14 = test system: M14
MCF7 = test system: MCF7
MDA-MB-231 = test system: MDA-MB-231
MDA-MB-435 = test system: MDA-MB-435
MDA-N = test system: MDA-N
MOLT-4 = test system: MOLT-4
NCI-H226 = test system: NCI-H226
NCI-H23 = test system: NCI-H23
NCI-H460 = test system: NCI-H460
NCI-H522 = test system: NCI-H522
NCI/ADR-RES = test system: NCI/ADR-RES
OVCAR-3 = test system: OVCAR-3
OVCAR-4 = test system: OVCAR-4
OVCAR-5 = test system: OVCAR-5
OVCAR-8 = test system: OVCAR-8
PC-3 = test system: PC-3
RPMI-8226 = test system: RPMI-8226
SF-268 = test system: SF-268
SF-295 = test system: SF-295
SF-539 = test system: SF-539
SK-MEL-28 = test system: SK-MEL-28
SK-MEL-2 = test system: SK-MEL-2
SK-MEL-5 = test system: SK-MEL-5
SK-OV-3 = test system: SK-OV-3
SN12C = test system: SN12C
SNB-19 = test system: SNB-19
SNB-75 = test system: SNB-75
SR = test system: SR
SW-620 = test system: SW-620
T47D = test system: T47D
TK-10 = test system: TK-10
U-251 = test system: U-251
UACC-257 = test system: UACC-257
UACC-62 = test system: UACC-62
UO-31 = test system: UO-31
HCC 2998 = test system: HCC 2998
HOP-92 = test system: HOP-92
Malme-3M = test system: Malme-3M
RXF 393 = test system: RXF 393

CC(O)C1OC(O)C2OC(C)(C)OC12 (stereo not drawn)
GI50 (786-0): > 100 µM (inactive)
GI50 (A498): > 100 µM (inactive)
GI50 (A549): > 100 µM (inactive)
GI50 (ACHN): > 100 µM (inactive)
GI50 (BT-549): > 100 µM (inactive)
GI50 (CAKI-1): > 100 µM (inactive)
GI50 (CCRF-CEM): > 100 µM (inactive)
GI50 (COLO 205): > 100 µM (inactive)
GI50 (DU-145): > 100 µM (inactive)
GI50 (EKVX): > 100 µM (inactive)
GI50 (HCT-116): > 100 µM (inactive)
GI50 (HCT-15): > 100 µM
GI50 (HL-60): > 100 µM (inactive)
GI50 (HOP-62): > 100 µM (inactive)
GI50 (HT-29): > 100 µM (inactive)
GI50 (Hs-578T): > 100 µM (inactive)
GI50 (IGROV-1): > 100 µM (inactive)
GI50 (K562): > 100 µM (inactive)
GI50 (KM12): > 100 µM (inactive)
GI50 (LOX IMVI): > 100 µM (inactive)
GI50 (M14): > 100 µM (inactive)
GI50 (MCF7): > 100 µM (inactive)
GI50 (MDA-MB-231): > 100 µM (inactive)
GI50 (MDA-MB-435): > 100 µM (inactive)
GI50 (MDA-N): > 100 µM (inactive)
GI50 (MOLT-4): > 100 µM (inactive)
GI50 (NCI-H226): > 100 µM (inactive)
GI50 (NCI-H23): > 100 µM (inactive)
GI50 (NCI-H460): > 100 µM (inactive)
GI50 (NCI-H522): > 100 µM (inactive)
GI50 (NCI/ADR-RES): > 100 µM (inactive)
GI50 (OVCAR-3): > 100 µM (inactive)
GI50 (OVCAR-4): > 100 µM (inactive)
GI50 (OVCAR-5): > 100 µM (inactive)
GI50 (OVCAR-8): > 100 µM (inactive)
GI50 (PC-3): > 100 µM (inactive)
GI50 (RPMI-8226): > 100 µM (inactive)
GI50 (SF-268): > 100 µM (inactive)
GI50 (SF-295): > 100 µM (inactive)
GI50 (SF-539): > 100 µM (inactive)
GI50 (SK-MEL-28): > 100 µM (inactive)
GI50 (SK-MEL-2): > 100 µM (inactive)
GI50 (SK-MEL-5): > 100 µM (inactive)
GI50 (SK-OV-3): > 100 µM (inactive)
GI50 (SN12C): > 100 µM (inactive)
GI50 (SNB-19): > 100 µM (inactive)
GI50 (SNB-75): > 100 µM (inactive)
GI50 (SR): > 100 µM (inactive)
GI50 (SW-620): > 100 µM (inactive)
GI50 (T47D): > 100 µM (inactive)
GI50 (TK-10): > 100 µM (inactive)
GI50 (U-251): > 100 µM (inactive)
GI50 (UACC-257): > 100 µM (inactive)
GI50 (UACC-62): > 100 µM (inactive)
GI50 (UO-31): > 100 µM (inactive)

CC1(C)CC(=O)C(CCC(=O)/C=C/c2ccccc2)C(=O)C1
GI50 (786-0): > 100 µM (inactive)
GI50 (A498): > 100 µM (inactive)
GI50 (A549): > 100 µM (inactive)
GI50 (ACHN): 98.9 µM (inactive)
GI50 (BT-549): > 100 µM (inactive)
GI50 (CAKI-1): > 100 µM (inactive)
GI50 (CCRF-CEM): > 34.9 µM (inactive)
GI50 (COLO 205): > 100 µM (inactive)
GI50 (DU-145): > 100 µM (inactive)
GI50 (EKVX): > 100 µM (inactive)
GI50 (HCC 2998): > 100 µM (inactive)
GI50 (HCT-116): > 100 µM (inactive)
GI50 (HCT-15): > 100 µM
GI50 (HL-60): 2.51 µM (inactive)
GI50 (HOP-62): > 100 µM (inactive)
GI50 (HOP-92): > 89.3 µM (inactive)
GI50 (HT-29): > 100 µM (inactive)
GI50 (Hs-578T): > 100 µM (inactive)
GI50 (IGROV-1): > 100 µM (inactive)
GI50 (K562): > 100 µM (inactive)
GI50 (KM12): > 100 µM (inactive)
GI50 (LOX IMVI): > 100 µM (inactive)
GI50 (M14): > 100 µM (inactive)
GI50 (MCF7): > 100 µM (inactive)
GI50 (MDA-MB-231): > 100 µM (inactive)
GI50 (MDA-MB-435): > 100 µM (inactive)
GI50 (MDA-N): > 100 µM (inactive)
GI50 (MOLT-4): 34 µM (inactive)
GI50 (Malme-3M): > 100 µM (inactive)
GI50 (NCI-H226): > 100 µM (inactive)
GI50 (NCI-H23): > 100 µM (inactive)
GI50 (NCI-H460): > 100 µM (inactive)
GI50 (NCI-H522): > 100 µM (inactive)
GI50 (NCI/ADR-RES): > 100 µM (inactive)
GI50 (OVCAR-3): > 100 µM (inactive)
GI50 (OVCAR-4): > 100 µM (inactive)
GI50 (OVCAR-5): > 100 µM (inactive)
GI50 (OVCAR-8): > 100 µM (inactive)
GI50 (PC-3): > 100 µM (inactive)
GI50 (RPMI-8226): > 100 µM (inactive)
GI50 (RXF 393): > 95.3 µM (inactive)
GI50 (SF-268): > 100 µM (inactive)
GI50 (SF-295): > 100 µM (inactive)
GI50 (SF-539): > 100 µM (inactive)
GI50 (SK-MEL-28): > 100 µM (inactive)
GI50 (SK-MEL-2): > 100 µM (inactive)
GI50 (SK-MEL-5): > 100 µM (inactive)
GI50 (SK-OV-3): > 100 µM (inactive)
GI50 (SN12C): > 100 µM (inactive)
GI50 (SNB-19): > 76.4 µM (inactive)
GI50 (SNB-75): > 100 µM (inactive)
GI50 (SW-620): > 100 µM (inactive)
GI50 (T47D): > 100 µM (inactive)
GI50 (TK-10): > 100 µM (inactive)
GI50 (U-251): > 100 µM (inactive)
GI50 (UACC-257): > 100 µM (inactive)
GI50 (UACC-62): > 100 µM (inactive)
GI50 (UO-31): > 61.4 µM (inactive)
